pIC50: −log10 of the molar value.
How the values were obtained:
[1] = MRT in male Sprague-Dawley rat at 1 mg/kg, iv measured after 24 hrs by LC-MS/MS analysis; type: ADME, organism-based; conditions: in vivo
[2] = Volume of distribution at steady state in male Sprague-Dawley rat at 1 mg/kg, iv measured after 24 hrs by LC-MS/MS analysis; type: ADME, organism-based; conditions: in vivo, read-out: Vdss
[3] = Clearance in male Sprague-Dawley rat at 1 mg/kg, iv measured after 24 hrs by LC-MS/MS analysis; type: ADME, organism-based; conditions: in vivo
[4] = Selectivity ratio of IC50 for inhibition of N-terminal GST-tagged wildtype human P38alpha (4 to 152 residues) extracted from Escherichia coli/GST-tagged PRAK (unknown origin) to IC50 for inhibition of N-terminal GST-tagged wildtype human P38alpha (4 to 152 residues) extracted from Escherichia coli/GST-tagged MK2 (unknown origin)
[5] = Oral bioavailability in male Sprague-Dawley rat at 2 mg/kg measured after 24 hrs by LC-MS/MS analysis; type: ADME, organism-based; conditions: in vivo
[6] = AUClast in male Sprague-Dawley rat at 1 mg/kg, iv measured after 24 hrs by LC-MS/MS analysis; type: ADME, organism-based; conditions: in vivo
[7] = AUClast in male Sprague-Dawley rat at 2 mg/kg, po measured after 24 hrs by LC-MS/MS analysis; type: ADME, organism-based; conditions: in vivo
[8] = Inhibition of N-terminal GST-tagged wildtype human P38alpha (4 to 152 residues) extracted from Escherichia coli/GST-tagged PRAK (unknown origin) assessed as reduction in HSP27 phosphorylation incubated for 2 hrs in presence of ATP and HSP27-FITC peptide by fluorescence polarization based IMAP assay
[9] = Cmax in male Sprague-Dawley rat at 2 mg/kg, po measured after 24 hrs by LC-MS/MS analysis; type: ADME, organism-based; conditions: in vivo
[10] = Half-life in male Sprague-Dawley rat at 1 mg/kg, iv measured after 24 hrs by LC-MS/MS analysis; type: ADME, organism-based; conditions: in vivo
[11] = Inhibition of LPS-induced TNF-alpha production in human PBMC cells preincubated with compound for 1 hrs followed by LPS addition and measured after 4 hrs; type: functional, cell-based
[12] = Inhibition of LPS-induced IL-1beta production in human PBMC cells preincubated with compound for 1 hrs followed by LPS addition and measured after 4 hrs; type: functional, cell-based

Cc1cnc(-c2cccc(C(C)(C)O)c2F)c(F)c1-n1c(C)cc(OCc2ncc(F)cc2F)c(Cl)c1=O
MRT [1]: 1.2 h
Vd [2]: 1.1 L/kg
clearance [3]: 16.3 mL/min/kg
Ratio IC50 [4]: 125
bioavailability [5]: 40%
AUC(0-t) at 24 h [6]: 1080 ng·h/mL
AUC(0-t) at 24 h [7]: 861 ng·h/mL
pIC50 [8]: 9.00
Cmax [9]: 283 ng/mL
half-life [10]: 0.9 h
pIC50 [11]: > 10.00
pIC50 [12]: 10.70
